Data as given in paper PMC6804459 (Acta Pharmaceutica Sinica. B, 2019).

Molecular target: recombinant human PrP (rhPrP, PrP^C) (Homo sapiens, UniProt P04156)
Test: biochemical
Type: binding

Cc1cc(Nc2ccc(NC(=O)c3ccc(Nc4ccnc5ccccc45)cc3)cc2)nc(N)n1 [SGI-1027]
Kd: 1610 nM
